Test results published in US7897723B2, “ErbB receptor-derived peptide fragments” (Københavns Universitet, priority 2006, dated 2011).
Bridges are numbered along the chain shown (N, C = ends). Roman numbers before positions name the chains, in order. Where no end group is shown, it is not given here.

Legend:
HN5 cells = test: Cell viability / cell growth (MTS staining); assay type: cell-based, human; settings: absence and presence of EGF, absence and presence of serum (FIGS. 6A and B)
Procedure: 2000 HN5 cells per well were seeded in a 96 well plate in full medium (containing 10% fetal calf serum) or starvation medium (serum-free). After 12 hours of incubation, peptides or ErbB1 kinase inhibitor PD153035 (Calbiochem) and/or EGF (Sigma-Aldrich) were added in the concentrations indicated in figures. Cells were grown for 72 hours, then 20 μl MTS One Solution Reagent (Promega, Madison, Wis., USA) were added per 100 μl culture medium in each well, and the plates were incubated for 1-2 hours at 37° C., followed by absorbance measurements at 490 nm.

ErbB1 = ErbB1 (Homo sapiens, UniProt P00533); test: ErbB receptor phosphorylation, HN5 cells; assay type: cell-based; design: the ErbB1 overexpressing human head and neck cancer cell line HN5; endogenous in cells; host or cells: HN5 human head and neck cancer cells; settings: 100 μM peptide for 30 min, 10 ng/ml EGF for 10 min (FIG. 8)
Procedure: The cells employed for this assay were NR6 wtEGFR cells, which are fibroblastoid cells stably transfected with ErbB1, and human head and neck tumor-derived HN5 cell. Confluent NR6 wtEGFR or HN5 cells were treated with peptide in the indicated concentrations for 30 min, then stimulated with 10 ng/ml EGF (Sigma-Aldrich, St. Louis, Mo., USA) for 10 min. Cells were lysed in lysis buffer (1% (v/v) Triton X-100, 150 mM NaCl, 10 mM Tris pH 7.4, 1 mM EDTA, 1 mM EGTA, 0.5% (v/v) NP-40, phosphatase inhibitors (Phosphatase Inhibitor Cocktail Set II from Calbiochem, La Jolla, Calif., USA) and protease inhibitors (Complete™ Protease Inhibitor Cocktail from Boehringer Mannheim Biochemica, Mannheim, Germany)), and cleared lysate samples containing equal amounts of total protein (as determined by a bicinchoninic acid assay (Pierce, Rockford, Ill., USA)) were subjected in duplicates to 4-12% SDS-PAGE and immunoblotting. One membrane was probed with anti-phospho-EGFR (phosphotyrosine 1068) antibody (Cell Signaling Technology, Danvers, Mass., USA), the other with anti-EGFR antibody (Cell Signaling Technology). Detection was carried out using horseradish peroxidase (HRP)-conjugated secondary antibodies (DAKO, Denmark) and enhanced chemiluminiscence (Pierce). The intensity of bands was quantified using densitometric analysis employing the software package GeneTools (Syngene, Cambridge, UK).

L929 cells = test: Cell proliferation (BrdU incorporation); assay type: cell-based; settings: L929 cells
Procedure: 2000 L929 cells (ECACC no: 85011425) per well were seeded in a 96 well plate in full medium (containing 10% foetal calf serum) or starvation medium (serum-free). Peptides, ErbB1 kinase inhibitor PD153035 (Calbiochem), and EGF (Sigma-Aldrich) were added immediately after seeding of the cells (for experiments done in full serum) or after 8 hours of incubation (for experiments done in starvation medium) in the concentrations indicated in figures. Cells were grown for 6 hours, then 10 μM bromodeoxyuridine (BrdU) was added, and cells were grown for additional 18 hours. Then, BrdU incorporation in the cells was assayed using the Biotrak ELISA System, version 2 from Amersham Biosciences Europe GmbH (Buckinghamshire, UK) following the manufacturer's protocol.

[1] = molecular target: T1, extracellular part of human ErbB2 (Fc chimeric protein) (Homo sapiens, UniProt P04626); test: Surface plasmon resonance (SPR) binding analysis, ErbB2; settings: peptide immobilized on sensor chip, mean ± SEM
T1 construct: the Fc protein fused to the extracellular parts of human ErbB2, ErbB3 or ErbB4; purchased R&D Systems Europe (Abingdon, UK)
Procedure: (§1) Binding analyses were performed with the surface plasmon resonance (SPR)-based biosensor instrument BIAcore2000 (BIAcore AB, Uppsala, Sweden), at 25° C. using ready-made HBS-EP buffer (BIAcore AB) as running buffer. Peptides were immobilized on the surface of a CM5 sensor chip (BIAcore AB) using an amine coupling kit (Biosensor AB, Uppsala, Sweden) according to the manufacturer's instructions, at a flow rate of 5 μl/min. Briefly, carboxyl groups on the sensor chip surface were activated by injection of 35 μl activation solution followed by injection of peptide (50 μg/ml peptide in HBS-EP buffer, pH 7.4) until the desired level of immobilized peptide was reached. Unreacted peptide was washed out and unreacted activated groups were blocked by the injection of 35 μl 1 M ethanolamine. […] A reference surface was generated simultaneously under the same conditions but without peptide injection and used as a blank chip control. ErbB receptor proteins were injected at various concentrations at a flow rate of 20 μl/min, and binding to the peptides immobilized on the chip was measured in real-time. The curve corresponding to the difference between signals on flow cells with immobilized peptide and the signal on the blank flow cell was used for analysis. […] Data were analyzed by nonlinear curve fitting using the manufacturer' software. […]

[2] = molecular target: T2, extracellular part of human ErbB4 (Fc chimeric protein) (Homo sapiens, UniProt Q15303); test: Surface plasmon resonance (SPR) binding analysis, ErbB4; settings: peptide immobilized on sensor chip, mean ± SEM
T2 construct: the Fc protein fused to the extracellular parts of human ErbB2, ErbB3 or ErbB4; purchased R&D Systems Europe (Abingdon, UK)
T2 sequence (Q15303 26-651 limits assumed): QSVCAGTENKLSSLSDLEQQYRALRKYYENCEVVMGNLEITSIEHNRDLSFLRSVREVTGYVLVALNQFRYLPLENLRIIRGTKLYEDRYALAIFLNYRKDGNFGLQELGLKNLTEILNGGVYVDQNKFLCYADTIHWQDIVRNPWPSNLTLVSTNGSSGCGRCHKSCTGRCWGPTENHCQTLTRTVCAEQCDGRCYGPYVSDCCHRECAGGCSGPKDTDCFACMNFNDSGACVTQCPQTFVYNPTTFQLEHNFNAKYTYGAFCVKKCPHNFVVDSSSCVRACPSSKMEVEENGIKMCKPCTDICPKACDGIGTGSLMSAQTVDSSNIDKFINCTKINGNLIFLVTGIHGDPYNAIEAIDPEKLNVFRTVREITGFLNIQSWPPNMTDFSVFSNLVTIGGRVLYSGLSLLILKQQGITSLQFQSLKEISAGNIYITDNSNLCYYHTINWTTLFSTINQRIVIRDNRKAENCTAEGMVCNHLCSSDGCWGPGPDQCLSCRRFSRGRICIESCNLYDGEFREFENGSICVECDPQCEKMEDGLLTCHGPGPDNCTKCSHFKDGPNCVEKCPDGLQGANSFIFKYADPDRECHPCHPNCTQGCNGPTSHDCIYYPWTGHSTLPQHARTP
Procedure: as §1

[3] = full medium, BrdU incorporation (FIG. 2, FIG. 3)
[4] = starvation medium, 10 or 100 ng/ml EGF, BrdU incorporation (FIG. 4)

T1 sequence (P04626 23-652 limits assumed, change not shown): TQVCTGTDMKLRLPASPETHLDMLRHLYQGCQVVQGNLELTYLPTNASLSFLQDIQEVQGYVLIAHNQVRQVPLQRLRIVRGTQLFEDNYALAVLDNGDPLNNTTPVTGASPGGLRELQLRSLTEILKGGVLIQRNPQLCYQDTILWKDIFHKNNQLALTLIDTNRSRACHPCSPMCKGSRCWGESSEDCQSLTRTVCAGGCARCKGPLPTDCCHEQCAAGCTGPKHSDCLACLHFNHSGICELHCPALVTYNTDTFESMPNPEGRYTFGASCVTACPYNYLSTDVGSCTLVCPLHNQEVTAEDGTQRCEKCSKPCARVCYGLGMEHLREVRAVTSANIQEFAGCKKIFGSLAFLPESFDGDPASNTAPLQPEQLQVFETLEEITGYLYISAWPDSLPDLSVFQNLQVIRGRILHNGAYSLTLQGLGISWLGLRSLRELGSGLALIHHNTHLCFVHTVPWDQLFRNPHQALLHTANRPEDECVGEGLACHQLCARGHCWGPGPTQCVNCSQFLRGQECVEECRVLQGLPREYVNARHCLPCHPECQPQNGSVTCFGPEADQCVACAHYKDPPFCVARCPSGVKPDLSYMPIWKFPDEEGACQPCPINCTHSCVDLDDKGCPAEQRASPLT

Compound	effect on HN5 cell growth (HN5 cells)	effect on EGF-induced cell proliferation (L929 cells; [3])	effect on EGF-induced cell proliferation (L929 cells; [4])	KD for binding to ErbB2 [1]	KD for binding to ErbB4 [2]	further results
KHKLPYNFNLETTVQPL (also: tetrameric dendrimer on lysine backbone) [Scr-Inherbin3d, reference compound]	no significant effects on HN5 cell growth					
VTYNTDTFESMPNPEGR (Inherbin 2 peptide) [Inherbin2]		able to inhibit EGF-induced cell proliferation significantly				effect on EGF-induced ErbB1 phosphorylation (ErbB1): not statistically significant
Inherbin3n: truncated peptide constituting the N-terminal half of the Inherbin3 peptide (possibly B3dln, SEQ ID NO: 36) (PLVYNKLT; B3dln peptide)		inhibited EGF-induced cell proliferation to the same extent as Inherbin3				
I: LVYNKLTFQLEPNPHTKKK / II: LVYNKLTFQLEPNPHTKK / III: LVYNKLTFQLEPNPHTK / IV: LVYNKLTFQLEPNPHTK (amide I:18-IV:C, I:19-II:C, II:18-III:C) [Inherbin3d]			inhibited EGF-induced cell proliferation	No binding	No binding	peptide doses that significantly inhibited cell proliferation (L929 cells; proliferation induced by either 10 or 100 ng/ml EGF (FIG. 4)): ≥ 0.6 µM
COc1cc2ncnc(Nc3cccc(Br)c3)c2cc1OC [PD153035, reference compound]	strongly inhibited growth of the cells both in absence and presence of EGF-stimulation and in the absence and presence of serum		blocked cell proliferation induced by stimulation with either 10 or 100 ng/ml EGF			
I: H-MLYNPTTYQMDVNPEGKKK / II: H-MLYNPTTYQMDVNPEGKK / III: H-MLYNPTTYQMDVNPEGK / IV: H-MLYNPTTYQMDVNPEGK (amide I:18-IV:C, I:19-II:C, II:18-III:C) [Inherbin 1DL, MLYNPTTYQMDVNPEGK]				No binding	No binding	
